Measured values published in ChEMBL document CHEMBL1909046, “DrugMatrix in vitro pharmacology data”.

Molecular target: Sodium-dependent dopamine transporter (Homo sapiens, UniProt Q01959)
Experiment: DRUGMATRIX: Dopamine Transporter radioligand binding (ligand: [125I] RTI-55)
Format: cell membranes, CHO-K1, Membrane
Conditions: Not Active = under 50% inhibition at 10 µM; read-out: IC50

Chain of Sodium-dependent dopamine transporter (Q01959 whole entry): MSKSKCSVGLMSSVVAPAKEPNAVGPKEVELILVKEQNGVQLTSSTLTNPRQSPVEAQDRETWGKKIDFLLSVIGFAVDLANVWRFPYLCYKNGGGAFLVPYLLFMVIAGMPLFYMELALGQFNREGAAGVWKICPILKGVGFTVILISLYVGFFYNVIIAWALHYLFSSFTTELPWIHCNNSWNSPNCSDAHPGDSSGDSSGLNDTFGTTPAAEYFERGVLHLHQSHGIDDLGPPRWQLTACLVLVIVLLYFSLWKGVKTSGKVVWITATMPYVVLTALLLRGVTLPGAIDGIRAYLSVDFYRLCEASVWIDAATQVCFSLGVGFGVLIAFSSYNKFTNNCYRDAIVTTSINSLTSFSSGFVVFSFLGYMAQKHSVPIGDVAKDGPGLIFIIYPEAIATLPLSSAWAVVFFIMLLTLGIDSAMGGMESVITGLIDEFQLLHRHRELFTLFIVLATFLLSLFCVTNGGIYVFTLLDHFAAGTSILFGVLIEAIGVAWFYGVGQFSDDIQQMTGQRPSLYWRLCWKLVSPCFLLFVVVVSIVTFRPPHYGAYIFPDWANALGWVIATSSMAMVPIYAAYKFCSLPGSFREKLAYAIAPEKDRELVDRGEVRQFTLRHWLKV

Compound | IC50
Clc1ccc(C(c2ccccc2Cl)C(Cl)Cl)cc1 (stereo not given) [MITOTANE] | 1000 nM

Same assay, conditions: Not Active = under 50% inhibition at 10 µM; read-out: Ki

Compound | Ki
Clc1ccc(C(c2ccccc2Cl)C(Cl)Cl)cc1 (stereo not given) [MITOTANE] | 795 nM

Same assay, conditions: cho-k1; Not Active = under 50% inhibition at 10 µM

Compound | IC50
C[C@](N)(Cc1ccc(O)cc1)C(=O)O [METYROSINE] | Not Active
CCC[C@@H]1C[C@@H](C(=O)N[C@@H]([C@H]2O[C@H](SC)[C@H](O)[C@@H](O)[C@H]2O)[C@@H](C)O)N(C)C1 [LINCOMYCIN] | Not Active

Tested on: not listed separately
Experiment: DRUGMATRIX: Leukotriene, BLT (LTB4) radioligand binding (ligand: [3H]LTB4)
Format: cell membranes, Membrane
Conditions: u-937; Not Active = under 50% inhibition at 10 µM

Compound | IC50 | Ki
C[C@](N)(Cc1ccc(O)cc1)C(=O)O [METYROSINE] | Not Active | Not Active
CCC[C@@H]1C[C@@H](C(=O)N[C@@H]([C@H]2O[C@H](SC)[C@H](O)[C@@H](O)[C@H]2O)[C@@H](C)O)N(C)C1 [LINCOMYCIN] | Not Active | Not Active
Clc1ccc(C(c2ccccc2Cl)C(Cl)Cl)cc1 (stereo not given) [MITOTANE] | Not Active | Not Active

Molecular target: Melanocortin receptor 3 (Homo sapiens, UniProt P41968); further: in other assays of this panel Not Active means under 50% inhibition at 10 µM
Sequence (P41968 whole entry): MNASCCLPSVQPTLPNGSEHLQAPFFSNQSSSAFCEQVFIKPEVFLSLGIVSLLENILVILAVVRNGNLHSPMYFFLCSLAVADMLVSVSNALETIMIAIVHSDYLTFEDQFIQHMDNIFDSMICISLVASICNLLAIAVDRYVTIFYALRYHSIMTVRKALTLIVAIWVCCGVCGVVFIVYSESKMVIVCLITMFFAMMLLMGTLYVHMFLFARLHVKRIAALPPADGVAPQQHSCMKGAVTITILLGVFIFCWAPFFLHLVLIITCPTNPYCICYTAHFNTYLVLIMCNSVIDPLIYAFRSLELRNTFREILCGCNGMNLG
Experiment: not given
Format: cell membranes, Membrane
Conditions: hek293

Compound | IC50
C[C@](N)(Cc1ccc(O)cc1)C(=O)O [METYROSINE] | Not Active
CCC[C@@H]1C[C@@H](C(=O)N[C@@H]([C@H]2O[C@H](SC)[C@H](O)[C@@H](O)[C@H]2O)[C@@H](C)O)N(C)C1 [LINCOMYCIN] | Not Active
Clc1ccc(C(c2ccccc2Cl)C(Cl)Cl)cc1 (stereo not given) [MITOTANE] | Not Active

Molecular target: 5-hydroxytryptamine receptor 1B (Rattus norvegicus, UniProt P28564); further: in other assays of this panel Not Active means under 50% inhibition at 10 µM
Experiment: not given
Format: cell membranes, Wistar, Cerebral cortex, Membrane
Conditions: not given

Compound | IC50
C[C@](N)(Cc1ccc(O)cc1)C(=O)O [METYROSINE] | Not Active
CCC[C@@H]1C[C@@H](C(=O)N[C@@H]([C@H]2O[C@H](SC)[C@H](O)[C@@H](O)[C@H]2O)[C@@H](C)O)N(C)C1 [LINCOMYCIN] | Not Active
Clc1ccc(C(c2ccccc2Cl)C(Cl)Cl)cc1 (stereo not given) [MITOTANE] | Not Active

Molecular target: Receptor tyrosine-protein kinase erbB-2 (Homo sapiens, UniProt P04626);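 further: inhibition of HER2 kinase enzyme activity, measured with Poly(Glu:Tyr) as the phosphorylation substrate; in other assays of this panel Not Active means under 50% inhibition at 10 µM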
Sequence (P04626 whole entry): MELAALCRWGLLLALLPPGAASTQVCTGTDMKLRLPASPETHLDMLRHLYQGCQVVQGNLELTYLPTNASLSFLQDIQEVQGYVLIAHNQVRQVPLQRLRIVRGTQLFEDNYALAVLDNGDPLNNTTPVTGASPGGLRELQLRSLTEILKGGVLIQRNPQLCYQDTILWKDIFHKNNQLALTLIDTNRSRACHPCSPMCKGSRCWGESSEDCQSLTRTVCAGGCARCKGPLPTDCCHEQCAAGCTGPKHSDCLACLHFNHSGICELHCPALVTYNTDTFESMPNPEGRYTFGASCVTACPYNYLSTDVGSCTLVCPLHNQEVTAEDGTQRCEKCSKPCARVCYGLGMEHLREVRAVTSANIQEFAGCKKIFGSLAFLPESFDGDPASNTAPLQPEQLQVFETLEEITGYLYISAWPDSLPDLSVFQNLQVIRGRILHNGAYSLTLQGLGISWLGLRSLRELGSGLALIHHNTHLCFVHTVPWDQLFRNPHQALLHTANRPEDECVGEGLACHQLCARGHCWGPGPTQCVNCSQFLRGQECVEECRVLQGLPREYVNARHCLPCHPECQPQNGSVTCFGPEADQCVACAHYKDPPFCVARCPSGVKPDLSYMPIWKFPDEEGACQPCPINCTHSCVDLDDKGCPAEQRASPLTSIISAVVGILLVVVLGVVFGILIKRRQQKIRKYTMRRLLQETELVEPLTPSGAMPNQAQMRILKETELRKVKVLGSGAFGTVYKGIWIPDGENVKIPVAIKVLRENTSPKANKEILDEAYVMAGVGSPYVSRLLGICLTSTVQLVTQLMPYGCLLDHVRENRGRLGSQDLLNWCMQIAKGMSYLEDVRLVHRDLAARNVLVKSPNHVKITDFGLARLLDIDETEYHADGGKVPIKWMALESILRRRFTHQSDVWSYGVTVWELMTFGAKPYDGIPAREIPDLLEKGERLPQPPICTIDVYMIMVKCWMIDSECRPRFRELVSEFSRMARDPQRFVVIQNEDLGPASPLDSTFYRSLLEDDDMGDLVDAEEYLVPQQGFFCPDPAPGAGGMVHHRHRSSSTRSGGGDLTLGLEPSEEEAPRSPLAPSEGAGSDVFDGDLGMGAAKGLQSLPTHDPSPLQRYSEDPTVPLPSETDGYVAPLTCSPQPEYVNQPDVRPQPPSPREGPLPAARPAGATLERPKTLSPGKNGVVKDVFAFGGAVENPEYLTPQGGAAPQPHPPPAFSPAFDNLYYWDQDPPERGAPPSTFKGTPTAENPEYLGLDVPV
Experiment: biochemical
Format: cell-based, Insect cells
Conditions: insect cells

Compound | IC50
C[C@](N)(Cc1ccc(O)cc1)C(=O)O [METYROSINE] | Not Active
CCC[C@@H]1C[C@@H](C(=O)N[C@@H]([C@H]2O[C@H](SC)[C@H](O)[C@@H](O)[C@H]2O)[C@@H](C)O)N(C)C1 [LINCOMYCIN] | Not Active
Clc1ccc(C(c2ccccc2Cl)C(Cl)Cl)cc1 (stereo not given) [MITOTANE] | Not Active

Molecular target: T1, Muscarinic acetylcholine receptor M5 (Homo sapiens, UniProt P08912); further: in other assays of this panel Not Active means under 50% inhibition at 10 µM
T1 sequence (P08912 whole entry): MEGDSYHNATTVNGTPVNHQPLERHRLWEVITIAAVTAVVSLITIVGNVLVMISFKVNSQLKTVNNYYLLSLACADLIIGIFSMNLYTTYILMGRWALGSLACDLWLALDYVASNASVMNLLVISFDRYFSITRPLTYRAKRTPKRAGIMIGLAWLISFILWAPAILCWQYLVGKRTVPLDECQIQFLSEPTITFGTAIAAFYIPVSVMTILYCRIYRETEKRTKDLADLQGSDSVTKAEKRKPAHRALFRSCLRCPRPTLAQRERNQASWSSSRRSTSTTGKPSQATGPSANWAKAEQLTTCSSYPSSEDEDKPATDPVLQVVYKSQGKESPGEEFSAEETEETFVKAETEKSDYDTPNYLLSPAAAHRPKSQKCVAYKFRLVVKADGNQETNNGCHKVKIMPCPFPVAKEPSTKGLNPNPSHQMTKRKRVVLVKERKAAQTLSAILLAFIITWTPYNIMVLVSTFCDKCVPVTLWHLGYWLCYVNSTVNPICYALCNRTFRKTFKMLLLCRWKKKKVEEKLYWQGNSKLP
Experiment: not given
Format: cell membranes, CHO-K1, Membrane
Conditions: cho-k1

Compound | IC50
C[C@](N)(Cc1ccc(O)cc1)C(=O)O [METYROSINE] | Not Active
CCC[C@@H]1C[C@@H](C(=O)N[C@@H]([C@H]2O[C@H](SC)[C@H](O)[C@@H](O)[C@H]2O)[C@@H](C)O)N(C)C1 [LINCOMYCIN] | Not Active
Clc1ccc(C(c2ccccc2Cl)C(Cl)Cl)cc1 (stereo not given) [MITOTANE] | Not Active

Molecular target: Melanocortin receptor 5 (Homo sapiens, UniProt P33032); further: in other assays of this panel Not Active means under 50% inhibition at 10 µM
Sequence (P33032 whole entry): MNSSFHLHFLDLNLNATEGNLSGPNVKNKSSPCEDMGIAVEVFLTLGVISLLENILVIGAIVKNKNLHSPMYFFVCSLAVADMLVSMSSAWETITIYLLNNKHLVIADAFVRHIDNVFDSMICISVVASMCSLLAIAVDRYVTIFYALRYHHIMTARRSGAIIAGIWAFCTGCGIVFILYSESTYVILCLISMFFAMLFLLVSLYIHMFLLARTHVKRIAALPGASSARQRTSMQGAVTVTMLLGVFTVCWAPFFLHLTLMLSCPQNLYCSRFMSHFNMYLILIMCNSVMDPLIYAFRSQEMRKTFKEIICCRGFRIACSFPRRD
Experiment: not given
Format: cell membranes, HEK293, Membrane
Conditions: hek293

Compound | IC50
C[C@](N)(Cc1ccc(O)cc1)C(=O)O [METYROSINE] | Not Active
CCC[C@@H]1C[C@@H](C(=O)N[C@@H]([C@H]2O[C@H](SC)[C@H](O)[C@@H](O)[C@H]2O)[C@@H](C)O)N(C)C1 [LINCOMYCIN] | Not Active
Clc1ccc(C(c2ccccc2Cl)C(Cl)Cl)cc1 (stereo not given) [MITOTANE] | Not Active

Molecular target: T2, Muscarinic acetylcholine receptor M4 (Homo sapiens, UniProt P08173); further: in other assays of this panel Not Active means under 50% inhibition at 10 µM
T2 sequence (P08173 whole entry): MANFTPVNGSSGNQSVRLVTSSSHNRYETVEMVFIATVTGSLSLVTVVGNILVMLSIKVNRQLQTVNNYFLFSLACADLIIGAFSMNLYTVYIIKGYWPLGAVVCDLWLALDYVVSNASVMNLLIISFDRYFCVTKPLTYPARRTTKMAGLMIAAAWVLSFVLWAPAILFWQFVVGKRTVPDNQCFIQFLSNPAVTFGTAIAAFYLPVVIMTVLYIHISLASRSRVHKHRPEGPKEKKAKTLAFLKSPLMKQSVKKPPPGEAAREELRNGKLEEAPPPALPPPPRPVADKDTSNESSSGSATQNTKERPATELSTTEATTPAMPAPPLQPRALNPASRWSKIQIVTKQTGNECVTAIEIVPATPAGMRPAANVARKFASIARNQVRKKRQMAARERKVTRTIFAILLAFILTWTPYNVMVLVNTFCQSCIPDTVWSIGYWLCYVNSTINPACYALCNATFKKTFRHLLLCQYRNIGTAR
Experiment: not given
Format: cell membranes, CHO-K1, Membrane
Conditions: cho-k1

Compound | IC50
C[C@](N)(Cc1ccc(O)cc1)C(=O)O [METYROSINE] | Not Active
CCC[C@@H]1C[C@@H](C(=O)N[C@@H]([C@H]2O[C@H](SC)[C@H](O)[C@@H](O)[C@H]2O)[C@@H](C)O)N(C)C1 [LINCOMYCIN] | Not Active
Clc1ccc(C(c2ccccc2Cl)C(Cl)Cl)cc1 (stereo not given) [MITOTANE] | Not Active

Molecular target: T3, Neutrophil elastase (Homo sapiens, UniProt P08246)
T3 sequence (P08246 whole entry): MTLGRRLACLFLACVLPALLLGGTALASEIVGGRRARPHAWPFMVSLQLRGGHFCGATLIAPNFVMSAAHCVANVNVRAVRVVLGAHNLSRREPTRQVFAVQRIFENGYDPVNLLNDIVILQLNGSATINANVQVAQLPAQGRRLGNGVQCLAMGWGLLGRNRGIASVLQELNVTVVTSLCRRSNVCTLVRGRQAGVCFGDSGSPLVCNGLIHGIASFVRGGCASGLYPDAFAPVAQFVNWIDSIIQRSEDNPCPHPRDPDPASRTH
Experiment: not given
Format: tissue-based
Conditions: not given

Compound | IC50
C[C@](N)(Cc1ccc(O)cc1)C(=O)O [METYROSINE] | Not Active
CCC[C@@H]1C[C@@H](C(=O)N[C@@H]([C@H]2O[C@H](SC)[C@H](O)[C@@H](O)[C@H]2O)[C@@H](C)O)N(C)C1 [LINCOMYCIN] | Not Active
Clc1ccc(C(c2ccccc2Cl)C(Cl)Cl)cc1 (stereo not given) [MITOTANE] | Not Active

Molecular target: Tyrosine-protein kinase Fyn (Homo sapiens, UniProt P06241)
Sequence (P06241 whole entry): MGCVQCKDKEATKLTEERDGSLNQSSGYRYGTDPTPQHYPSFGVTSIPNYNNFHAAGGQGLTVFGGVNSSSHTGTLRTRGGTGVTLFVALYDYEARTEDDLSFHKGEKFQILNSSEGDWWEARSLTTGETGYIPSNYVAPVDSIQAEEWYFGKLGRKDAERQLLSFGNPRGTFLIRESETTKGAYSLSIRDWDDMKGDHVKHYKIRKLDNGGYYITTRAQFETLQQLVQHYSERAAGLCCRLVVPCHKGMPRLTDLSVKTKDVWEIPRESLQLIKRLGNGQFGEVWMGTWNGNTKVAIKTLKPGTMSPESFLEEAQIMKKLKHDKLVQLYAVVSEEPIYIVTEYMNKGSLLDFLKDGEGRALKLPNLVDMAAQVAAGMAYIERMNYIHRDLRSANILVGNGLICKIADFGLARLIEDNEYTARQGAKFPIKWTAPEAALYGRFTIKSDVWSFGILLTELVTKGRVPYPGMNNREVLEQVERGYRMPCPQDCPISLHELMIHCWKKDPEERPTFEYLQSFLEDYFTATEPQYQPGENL
Experiment: biochemical
Format: cell-based, Insect cells
Conditions: insect cells

Compound | IC50
C[C@](N)(Cc1ccc(O)cc1)C(=O)O [METYROSINE] | Not Active
CCC[C@@H]1C[C@@H](C(=O)N[C@@H]([C@H]2O[C@H](SC)[C@H](O)[C@@H](O)[C@H]2O)[C@@H](C)O)N(C)C1 [LINCOMYCIN] | Not Active
Clc1ccc(C(c2ccccc2Cl)C(Cl)Cl)cc1 (stereo not given) [MITOTANE] | Not Active

Tested on: not listed separately
Experiment: DRUGMATRIX: Sigma2 radioligand binding (ligand: [3H] Ifenprodil)
Format: cell membranes, Rattus norvegicus, Wistar, Brain, Membrane
Conditions: Not Active = under 50% inhibition at 10 µM

Compound | IC50 | Ki
C[C@](N)(Cc1ccc(O)cc1)C(=O)O [METYROSINE] | Not Active | Not Active
CCC[C@@H]1C[C@@H](C(=O)N[C@@H]([C@H]2O[C@H](SC)[C@H](O)[C@@H](O)[C@H]2O)[C@@H](C)O)N(C)C1 [LINCOMYCIN] | Not Active | Not Active
Clc1ccc(C(c2ccccc2Cl)C(Cl)Cl)cc1 (stereo not given) [MITOTANE] | Not Active | Not Active

Tested on: not listed separately
Experiment: DRUGMATRIX: GABAA, Flunitrazepam, Central radioligand binding (ligand: [3H] Flunitrazepam)
Format: cell membranes, Rattus norvegicus, Wistar, Brain, Membrane
Conditions: Not Active = under 50% inhibition at 10 µM

Compound | IC50 | Ki
C[C@](N)(Cc1ccc(O)cc1)C(=O)O [METYROSINE] | Not Active | Not Active
CCC[C@@H]1C[C@@H](C(=O)N[C@@H]([C@H]2O[C@H](SC)[C@H](O)[C@@H](O)[C@H]2O)[C@@H](C)O)N(C)C1 [LINCOMYCIN] | Not Active | Not Active
Clc1ccc(C(c2ccccc2Cl)C(Cl)Cl)cc1 (stereo not given) [MITOTANE] | Not Active | Not Active

Molecular target: Histamine H2 receptor (Homo sapiens, UniProt P25021); further: in other assays of this panel Not Active means under 50% inhibition at 10 µM
Sequence (P25021 whole entry): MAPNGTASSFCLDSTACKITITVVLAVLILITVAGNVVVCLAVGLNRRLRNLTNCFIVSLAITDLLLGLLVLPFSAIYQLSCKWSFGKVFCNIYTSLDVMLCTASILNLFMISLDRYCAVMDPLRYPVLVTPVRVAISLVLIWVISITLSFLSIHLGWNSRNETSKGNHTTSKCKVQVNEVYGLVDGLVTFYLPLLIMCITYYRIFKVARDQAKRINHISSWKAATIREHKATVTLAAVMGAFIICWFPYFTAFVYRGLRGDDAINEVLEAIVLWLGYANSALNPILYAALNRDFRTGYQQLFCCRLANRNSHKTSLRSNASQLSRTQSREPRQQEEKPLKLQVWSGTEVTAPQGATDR
Experiment: not given
Format: cell membranes, CHO-K1, Membrane
Conditions: cho-k1

Compound | IC50
C[C@](N)(Cc1ccc(O)cc1)C(=O)O [METYROSINE] | Not Active
CCC[C@@H]1C[C@@H](C(=O)N[C@@H]([C@H]2O[C@H](SC)[C@H](O)[C@@H](O)[C@H]2O)[C@@H](C)O)N(C)C1 [LINCOMYCIN] | Not Active
Clc1ccc(C(c2ccccc2Cl)C(Cl)Cl)cc1 (stereo not given) [MITOTANE] | Not Active

Molecular target: Insulin receptor (Rattus norvegicus, UniProt P15127); further: in other assays of this panel Not Active means under 50% inhibition at 10 µM
Sequence (P15127 27-759 limits assumed): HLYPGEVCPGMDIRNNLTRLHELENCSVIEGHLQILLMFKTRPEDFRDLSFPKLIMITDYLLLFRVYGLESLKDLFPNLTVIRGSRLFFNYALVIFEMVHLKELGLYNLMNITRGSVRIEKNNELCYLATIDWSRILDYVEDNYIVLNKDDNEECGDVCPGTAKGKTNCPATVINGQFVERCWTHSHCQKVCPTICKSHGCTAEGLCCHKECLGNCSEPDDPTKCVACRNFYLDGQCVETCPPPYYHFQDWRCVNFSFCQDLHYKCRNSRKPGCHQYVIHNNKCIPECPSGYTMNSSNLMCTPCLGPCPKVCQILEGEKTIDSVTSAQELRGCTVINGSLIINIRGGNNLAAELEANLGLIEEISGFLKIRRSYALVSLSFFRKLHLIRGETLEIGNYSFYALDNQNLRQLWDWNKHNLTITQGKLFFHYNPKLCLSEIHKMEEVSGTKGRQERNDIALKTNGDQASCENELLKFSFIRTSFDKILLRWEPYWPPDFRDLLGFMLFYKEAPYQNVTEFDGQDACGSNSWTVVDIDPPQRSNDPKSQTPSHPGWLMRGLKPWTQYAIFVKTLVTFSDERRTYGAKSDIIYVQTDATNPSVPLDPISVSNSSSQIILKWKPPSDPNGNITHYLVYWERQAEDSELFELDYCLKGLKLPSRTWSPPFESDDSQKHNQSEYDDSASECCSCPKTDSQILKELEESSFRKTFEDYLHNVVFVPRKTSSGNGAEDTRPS
Sequence (P15127 764-1383 limits assumed): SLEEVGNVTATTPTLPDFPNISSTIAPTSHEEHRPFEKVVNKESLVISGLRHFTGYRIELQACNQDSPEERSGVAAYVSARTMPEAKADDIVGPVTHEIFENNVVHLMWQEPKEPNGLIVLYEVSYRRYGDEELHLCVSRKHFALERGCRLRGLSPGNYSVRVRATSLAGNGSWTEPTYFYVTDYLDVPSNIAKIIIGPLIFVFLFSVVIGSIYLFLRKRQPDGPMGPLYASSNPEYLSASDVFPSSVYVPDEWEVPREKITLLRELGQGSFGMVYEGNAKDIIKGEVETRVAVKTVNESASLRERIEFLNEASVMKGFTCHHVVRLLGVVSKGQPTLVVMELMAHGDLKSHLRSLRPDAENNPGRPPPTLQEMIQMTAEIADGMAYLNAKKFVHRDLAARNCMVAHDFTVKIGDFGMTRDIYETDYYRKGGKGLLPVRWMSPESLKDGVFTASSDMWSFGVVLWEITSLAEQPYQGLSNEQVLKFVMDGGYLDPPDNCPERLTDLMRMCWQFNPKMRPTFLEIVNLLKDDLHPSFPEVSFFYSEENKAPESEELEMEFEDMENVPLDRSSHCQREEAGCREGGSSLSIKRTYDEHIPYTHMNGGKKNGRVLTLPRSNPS
Experiment: not given
Format: cell membranes, Wistar, Liver, Membrane
Conditions: not given

Compound | IC50
C[C@](N)(Cc1ccc(O)cc1)C(=O)O [METYROSINE] | Not Active
CCC[C@@H]1C[C@@H](C(=O)N[C@@H]([C@H]2O[C@H](SC)[C@H](O)[C@@H](O)[C@H]2O)[C@@H](C)O)N(C)C1 [LINCOMYCIN] | Not Active
Clc1ccc(C(c2ccccc2Cl)C(Cl)Cl)cc1 (stereo not given) [MITOTANE] | Not Active

Molecular target: T4, Caspase-1 (Homo sapiens, UniProt P29466)
T4 sequence (P29466 whole entry): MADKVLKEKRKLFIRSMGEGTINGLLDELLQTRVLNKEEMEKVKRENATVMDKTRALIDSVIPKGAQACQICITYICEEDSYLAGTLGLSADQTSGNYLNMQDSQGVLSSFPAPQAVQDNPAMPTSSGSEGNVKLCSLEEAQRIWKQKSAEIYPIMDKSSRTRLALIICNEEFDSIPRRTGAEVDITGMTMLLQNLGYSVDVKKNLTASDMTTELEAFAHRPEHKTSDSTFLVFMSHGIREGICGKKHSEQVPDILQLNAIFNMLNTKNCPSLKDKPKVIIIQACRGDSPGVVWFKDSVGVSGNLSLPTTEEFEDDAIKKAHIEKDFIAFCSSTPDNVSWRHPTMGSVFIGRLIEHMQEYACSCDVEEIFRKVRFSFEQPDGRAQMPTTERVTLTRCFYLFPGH
Experiment: not given
Parameters: species or system Escherichia coli
Conditions: not given

Compound | IC50
C[C@](N)(Cc1ccc(O)cc1)C(=O)O [METYROSINE] | Not Active
CCC[C@@H]1C[C@@H](C(=O)N[C@@H]([C@H]2O[C@H](SC)[C@H](O)[C@@H](O)[C@H]2O)[C@@H](C)O)N(C)C1 [LINCOMYCIN] | Not Active
Clc1ccc(C(c2ccccc2Cl)C(Cl)Cl)cc1 (stereo not given) [MITOTANE] | Not Active
